Results taken from ChEMBL document CHEMBL4396928, “Discovery of Selective, Orally Bioavailable Pyrazolopyridine Inhibitors of Protein Kinase Cθ (PKCθ) That Ameliorate Symptoms of Experimental Autoimmune Encephalomyelitis” (ACS Med Chem Lett, 2019).
In brackets after ≈: the same amount, converted by molar mass. Activity calls are given as the source filed them. The rule behind the calls is not given here.

Assays:
[1] = Clerance in iv dosed dog; type: ADME, organism-based, Canis lupus familiaris; settings: in vivo
[2] = Unbound drug level in brain of BALB/c mouse at 100 mg/kg, po measured after 3 hrs; type: ADME, organism-based; settings: in vivo
[3] = tested on: HFL1; assay: Cytotoxicity against human HFL1 cells assessed as growth inhibition measured after 48 hrs by 3H-thymidine incorporation assay; type: cell-based
[4] = target: Protein kinase C beta type (Homo sapiens, UniProt P05771); assay: Inhibition of human PKC beta
[5] = Stability of compound in rat liver microsomes assessed as compound remaining at 30 mins; type: ADME, Microsome; settings: read-out: Stability
[6] = Half-life in iv dosed cynomolgus monkey; type: ADME, organism-based, Macaca fascicularis; settings: in vivo
[7] = Clearance in iv dosed rat; type: ADME, organism-based; settings: in vivo
[8] = Lipophilicity, logD of compound; type: physicochemical; settings: octanol/water
[9] = tested on: PBMC; assay: Inhibition of IL-2 secretion from human PBMC cells stimulated with anti-CD3/CD28 measured after 24 hrs by bead-based FLISA; type: functional, cell-based
[10] = Clearance in iv dosed cynomolgus monkey; type: ADME, organism-based, Macaca fascicularis; settings: in vivo
[11] = Dissociation constant, pKa of compound; type: physicochemical
[12] = Oral bioavailability in rat; type: ADME, organism-based; settings: in vivo
[13] = target: Voltage-gated inwardly rectifying potassium channel KCNH2 (Homo sapiens, UniProt Q12809); assay: Inhibition of human ERG
Voltage-gated inwardly rectifying potassium channel KCNH2, sequence (Q12809 whole entry): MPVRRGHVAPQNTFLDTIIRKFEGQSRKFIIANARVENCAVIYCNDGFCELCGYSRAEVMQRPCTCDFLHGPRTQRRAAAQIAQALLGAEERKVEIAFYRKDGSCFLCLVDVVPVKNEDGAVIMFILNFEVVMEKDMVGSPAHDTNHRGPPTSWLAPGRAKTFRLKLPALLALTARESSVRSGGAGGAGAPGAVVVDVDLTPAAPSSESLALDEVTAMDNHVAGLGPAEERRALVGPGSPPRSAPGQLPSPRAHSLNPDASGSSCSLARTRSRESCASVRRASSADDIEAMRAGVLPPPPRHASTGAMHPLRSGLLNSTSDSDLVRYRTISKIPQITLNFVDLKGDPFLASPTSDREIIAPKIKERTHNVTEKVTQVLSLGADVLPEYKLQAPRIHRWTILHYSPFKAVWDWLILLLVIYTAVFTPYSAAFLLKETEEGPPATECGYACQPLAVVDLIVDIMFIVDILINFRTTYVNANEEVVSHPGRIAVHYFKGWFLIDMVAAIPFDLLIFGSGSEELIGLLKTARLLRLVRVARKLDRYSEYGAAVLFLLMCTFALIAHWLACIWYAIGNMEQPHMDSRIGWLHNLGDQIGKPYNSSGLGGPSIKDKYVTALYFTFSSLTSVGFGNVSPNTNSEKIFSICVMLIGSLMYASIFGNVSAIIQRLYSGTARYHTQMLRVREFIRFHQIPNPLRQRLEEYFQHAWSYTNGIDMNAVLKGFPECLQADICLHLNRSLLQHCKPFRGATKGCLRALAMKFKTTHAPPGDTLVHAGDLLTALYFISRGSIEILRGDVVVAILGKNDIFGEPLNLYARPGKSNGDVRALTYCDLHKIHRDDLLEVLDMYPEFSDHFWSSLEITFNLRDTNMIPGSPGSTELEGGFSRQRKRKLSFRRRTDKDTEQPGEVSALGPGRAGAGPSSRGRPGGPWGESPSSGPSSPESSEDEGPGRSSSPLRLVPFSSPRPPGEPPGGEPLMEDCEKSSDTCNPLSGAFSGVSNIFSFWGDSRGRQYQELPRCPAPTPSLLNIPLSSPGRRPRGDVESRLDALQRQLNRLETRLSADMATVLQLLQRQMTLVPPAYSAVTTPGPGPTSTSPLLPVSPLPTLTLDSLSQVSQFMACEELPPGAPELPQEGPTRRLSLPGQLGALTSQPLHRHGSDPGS

[14] = Efflux ratio of permeability in human Caco2 cells by LC-MS/MS analysis; type: ADME, cell-based; settings: Caco-2
[15] = Half-life in iv dosed dog; type: ADME, organism-based, Canis lupus familiaris; settings: in vivo
[16] = Unbound drug level in brain of BALB/c mouse at 50 mg/kg, po measured after 3 hrs; type: ADME, organism-based; settings: in vivo
[17] = Stability of compound in human liver microsomes assessed as compound remaining at 30 mins; type: ADME, Microsome; settings: read-out: Stability
[18] = Half-life in iv dosed rat; type: ADME, organism-based; settings: in vivo
[19] = Oral bioavailability in mouse; type: ADME, organism-based; settings: in vivo
[20] = Inhibition of CD3/CD28 stimulated IL-17 secretion from human Th17 cells measured after 24 hrs by ELISA
[21] = tested on: Mus musculus; assay: Anti-inflammatory activity in C57BL/6 mouse model of MOG (35 to 55 residues)/pertussis toxin/complete Freund's adjuvant-induced autoimmune encephalomyelitis assessed as reduction in development of clinical symptoms at 50 mg/kg, po bid starting from day 8 post immunization upto 10 days; type: functional, organism-based
[22] = target: Protein kinase C theta type (Homo sapiens, UniProt Q04759); assay: Inhibition of human recombinant full length His tagged PKC theta expressed in baculovirus using ERMRPRKRQGSVRRRV peptide as substrate incubated for 60 mins in presence of [33P] gammaATP by microbeta liquid scintillation counter
Protein kinase C theta type, sequence (Q04759 whole entry): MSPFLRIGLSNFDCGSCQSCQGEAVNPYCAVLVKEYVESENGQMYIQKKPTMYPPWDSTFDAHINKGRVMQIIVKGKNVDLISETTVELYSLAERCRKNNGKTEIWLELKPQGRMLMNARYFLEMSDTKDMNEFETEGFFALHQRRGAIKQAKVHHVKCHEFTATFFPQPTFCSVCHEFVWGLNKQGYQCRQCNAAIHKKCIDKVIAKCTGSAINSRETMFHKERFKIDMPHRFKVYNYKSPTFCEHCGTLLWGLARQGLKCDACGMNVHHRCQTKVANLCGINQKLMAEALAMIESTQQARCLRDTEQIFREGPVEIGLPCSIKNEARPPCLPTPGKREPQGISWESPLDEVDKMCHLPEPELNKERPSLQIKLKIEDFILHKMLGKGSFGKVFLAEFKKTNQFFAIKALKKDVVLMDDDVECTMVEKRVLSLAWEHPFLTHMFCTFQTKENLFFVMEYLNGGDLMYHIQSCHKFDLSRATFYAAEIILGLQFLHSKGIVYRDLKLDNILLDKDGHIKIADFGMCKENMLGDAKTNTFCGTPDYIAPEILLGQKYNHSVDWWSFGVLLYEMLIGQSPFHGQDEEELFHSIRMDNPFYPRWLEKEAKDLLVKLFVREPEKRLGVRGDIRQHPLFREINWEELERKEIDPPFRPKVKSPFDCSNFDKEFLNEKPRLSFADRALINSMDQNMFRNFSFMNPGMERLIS

[23] = target: Protein kinase C delta type (Homo sapiens, UniProt Q05655); assay: Inhibition of recombinant full length PKC delta (unknown origin) using ERMRPRKR- QGSVRRRV peptide as substrate measured after 15 mins in presence of ATP by spectrophotometric analysis
Protein kinase C delta type, sequence (Q05655 whole entry): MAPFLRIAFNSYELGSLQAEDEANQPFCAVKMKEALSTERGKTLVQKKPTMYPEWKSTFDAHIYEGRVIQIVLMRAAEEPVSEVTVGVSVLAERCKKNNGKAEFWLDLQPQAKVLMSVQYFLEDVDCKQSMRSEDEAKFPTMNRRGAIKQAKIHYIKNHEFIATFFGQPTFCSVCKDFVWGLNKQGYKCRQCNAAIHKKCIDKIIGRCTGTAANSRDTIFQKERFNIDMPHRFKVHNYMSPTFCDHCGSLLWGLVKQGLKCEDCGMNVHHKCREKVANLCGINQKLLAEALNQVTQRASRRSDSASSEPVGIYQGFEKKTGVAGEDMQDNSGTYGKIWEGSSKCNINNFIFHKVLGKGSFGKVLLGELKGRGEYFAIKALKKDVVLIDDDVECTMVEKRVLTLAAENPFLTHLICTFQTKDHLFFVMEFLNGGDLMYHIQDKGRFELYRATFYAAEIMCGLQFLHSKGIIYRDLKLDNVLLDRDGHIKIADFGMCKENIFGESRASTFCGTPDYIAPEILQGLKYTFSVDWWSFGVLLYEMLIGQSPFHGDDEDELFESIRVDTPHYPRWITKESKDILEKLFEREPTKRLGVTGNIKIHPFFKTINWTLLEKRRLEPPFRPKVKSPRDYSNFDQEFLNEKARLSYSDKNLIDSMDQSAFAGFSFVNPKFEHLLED

[24] = tested on: Mus musculus; assay: In vivo inhibition of Il-2 production in BALB/c mouse at 25 to 100 mg/lg, po measured after 3 hrs; type: functional, organism-based
[25] = Thermodynamic solubility of compound in sodium phosphate buffer at pH 7.4; type: physicochemical; settings: read-out: Therm_solubility
[26] = target: Protein kinase C alpha type (Homo sapiens, UniProt P17252); assay: Inhibition of recombinant full length PKC alpha (unknown origin) using RRRRRKGSFKRKA peptide as substrate measured after 15 mins in presence of ATP by spectrophotometric analysis
[27] = Permeability across apical to basolateral side in human Caco2 cells measured at 120 mins by LC-MS/MS analysis; type: ADME, cell-based; settings: Caco-2, read-out: permeability
[28] = target: T1, Cytochrome P450 2D6 (Homo sapiens, UniProt P10635); assay: Inhibition of CYP2D6 (unknown origin) at > 30 uM; type: ADME
T1 sequence (P10635 whole entry): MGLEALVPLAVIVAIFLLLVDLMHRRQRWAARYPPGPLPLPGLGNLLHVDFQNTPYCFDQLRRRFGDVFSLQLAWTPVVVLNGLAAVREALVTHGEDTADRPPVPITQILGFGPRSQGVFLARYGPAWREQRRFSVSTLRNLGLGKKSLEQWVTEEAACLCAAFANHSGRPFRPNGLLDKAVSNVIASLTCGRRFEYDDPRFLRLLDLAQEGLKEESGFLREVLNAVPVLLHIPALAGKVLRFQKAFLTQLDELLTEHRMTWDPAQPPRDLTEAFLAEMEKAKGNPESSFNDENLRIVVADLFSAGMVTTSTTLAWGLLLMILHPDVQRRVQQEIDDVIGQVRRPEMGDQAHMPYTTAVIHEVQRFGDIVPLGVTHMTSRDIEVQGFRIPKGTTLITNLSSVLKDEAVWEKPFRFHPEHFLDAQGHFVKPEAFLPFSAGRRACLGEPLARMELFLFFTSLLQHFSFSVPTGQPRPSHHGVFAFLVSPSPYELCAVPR

[29] = target: T2, Cytochrome P450 2C9 (Homo sapiens, UniProt P11712); assay: Inhibition of CYP2C9 (unknown origin) at > 30 uM; type: ADME
T2 sequence (P11712 whole entry): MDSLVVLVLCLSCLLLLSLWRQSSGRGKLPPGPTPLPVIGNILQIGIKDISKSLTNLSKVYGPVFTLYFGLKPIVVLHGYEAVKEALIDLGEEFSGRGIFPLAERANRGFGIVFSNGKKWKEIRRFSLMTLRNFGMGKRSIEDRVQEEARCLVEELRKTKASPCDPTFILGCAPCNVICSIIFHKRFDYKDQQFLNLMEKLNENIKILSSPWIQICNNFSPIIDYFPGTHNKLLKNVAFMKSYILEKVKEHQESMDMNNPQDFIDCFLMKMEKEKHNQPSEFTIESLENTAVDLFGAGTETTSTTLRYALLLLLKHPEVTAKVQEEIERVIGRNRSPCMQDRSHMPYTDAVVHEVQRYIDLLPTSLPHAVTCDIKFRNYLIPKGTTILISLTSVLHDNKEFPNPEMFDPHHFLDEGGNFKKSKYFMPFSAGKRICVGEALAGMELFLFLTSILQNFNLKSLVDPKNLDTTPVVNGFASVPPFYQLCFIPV

[30] = target: T3, Cytochrome P450 3A4 (Homo sapiens, UniProt P08684); assay: Inhibition of CYP3A4 (unknown origin) at 22 uM; type: ADME
T3 sequence (P08684 whole entry): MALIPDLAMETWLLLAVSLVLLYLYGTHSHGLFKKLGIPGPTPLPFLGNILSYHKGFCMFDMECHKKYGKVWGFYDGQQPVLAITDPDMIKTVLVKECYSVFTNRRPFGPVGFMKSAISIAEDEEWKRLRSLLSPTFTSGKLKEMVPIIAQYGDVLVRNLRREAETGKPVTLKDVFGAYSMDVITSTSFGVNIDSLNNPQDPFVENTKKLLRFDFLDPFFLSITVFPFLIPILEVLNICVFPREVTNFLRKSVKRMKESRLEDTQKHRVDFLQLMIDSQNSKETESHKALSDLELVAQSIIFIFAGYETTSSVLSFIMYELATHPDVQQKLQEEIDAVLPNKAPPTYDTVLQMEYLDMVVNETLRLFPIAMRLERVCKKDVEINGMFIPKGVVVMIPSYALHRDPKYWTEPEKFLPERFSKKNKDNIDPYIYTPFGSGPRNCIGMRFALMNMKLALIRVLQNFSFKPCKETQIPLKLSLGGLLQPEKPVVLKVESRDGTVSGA

[31] = Volume of distribution at steady state in iv dosed rat; type: ADME, organism-based; settings: in vivo, read-out: Vdss
[32] = Unbound hepatic clearance in rat hepatocytes assessed per million cells; type: ADME, cell-based, Hepatocyte
[33] = target: Tyrosine-protein kinase JAK2 (Homo sapiens, UniProt O60674); assay: Inhibition of JAK2 (unknown origin) using polyE4Y peptide as substrate incubated for 60 mins in presence of [33P] gammaATP by microbeta liquid scintillation counter
[34] = Unbound hepatic clearance in human hepatocytes assessed per million cells; type: ADME, cell-based, Hepatocyte
[35] = target: Glycogen synthase kinase-3 beta (Homo sapiens, UniProt P49841); assay: Inhibition of GSK-3beta (unknown origin) using HSSPHQS(PO3H2)EDEEE peptide as substrate measured after 15 mins in presence of ATP by spectrophotometric analysis
[36] = target: T4, Tyrosine-protein kinase JAK3 (Homo sapiens, UniProt P52333); assay: Inhibition of JAK3 (unknown origin)
T4 sequence (P52333 whole entry): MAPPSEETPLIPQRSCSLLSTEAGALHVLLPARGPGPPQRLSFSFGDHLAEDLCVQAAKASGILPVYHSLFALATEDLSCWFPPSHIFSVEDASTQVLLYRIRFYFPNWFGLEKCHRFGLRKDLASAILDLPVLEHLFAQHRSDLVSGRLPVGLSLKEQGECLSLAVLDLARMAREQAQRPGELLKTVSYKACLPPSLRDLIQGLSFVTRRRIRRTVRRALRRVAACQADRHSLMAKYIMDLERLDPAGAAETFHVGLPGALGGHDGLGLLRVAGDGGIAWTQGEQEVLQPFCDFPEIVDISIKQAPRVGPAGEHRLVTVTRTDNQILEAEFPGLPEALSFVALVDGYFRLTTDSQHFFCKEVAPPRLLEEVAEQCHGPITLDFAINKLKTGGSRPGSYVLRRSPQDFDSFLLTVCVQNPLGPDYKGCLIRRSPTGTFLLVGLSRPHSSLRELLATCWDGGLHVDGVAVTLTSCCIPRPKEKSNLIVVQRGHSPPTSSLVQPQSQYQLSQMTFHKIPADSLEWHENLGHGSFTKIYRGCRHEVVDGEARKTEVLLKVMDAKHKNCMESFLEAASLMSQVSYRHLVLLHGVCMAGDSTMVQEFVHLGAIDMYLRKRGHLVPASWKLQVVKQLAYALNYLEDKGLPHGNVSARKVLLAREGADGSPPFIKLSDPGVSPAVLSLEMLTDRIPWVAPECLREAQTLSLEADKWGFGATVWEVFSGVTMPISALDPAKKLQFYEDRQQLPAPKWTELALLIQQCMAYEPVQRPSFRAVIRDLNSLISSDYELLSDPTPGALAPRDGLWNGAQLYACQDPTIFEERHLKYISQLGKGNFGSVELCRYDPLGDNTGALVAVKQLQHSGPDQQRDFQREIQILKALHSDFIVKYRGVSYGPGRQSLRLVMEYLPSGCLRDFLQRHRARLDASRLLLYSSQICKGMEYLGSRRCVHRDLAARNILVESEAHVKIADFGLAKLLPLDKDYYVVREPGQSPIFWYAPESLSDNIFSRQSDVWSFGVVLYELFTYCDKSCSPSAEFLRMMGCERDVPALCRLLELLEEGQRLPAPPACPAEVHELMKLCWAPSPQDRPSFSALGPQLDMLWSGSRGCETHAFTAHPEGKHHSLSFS

[37] = target: T5, Receptor-type tyrosine-protein kinase FLT3 (Homo sapiens, UniProt P36888); assay: Inhibition of FLT3 (unknown origin) using polyE4Y peptide as substrate incubated for 60 mins in presence of [33P] gammaATP by microbeta liquid scintillation counter
T5 sequence (P36888 whole entry): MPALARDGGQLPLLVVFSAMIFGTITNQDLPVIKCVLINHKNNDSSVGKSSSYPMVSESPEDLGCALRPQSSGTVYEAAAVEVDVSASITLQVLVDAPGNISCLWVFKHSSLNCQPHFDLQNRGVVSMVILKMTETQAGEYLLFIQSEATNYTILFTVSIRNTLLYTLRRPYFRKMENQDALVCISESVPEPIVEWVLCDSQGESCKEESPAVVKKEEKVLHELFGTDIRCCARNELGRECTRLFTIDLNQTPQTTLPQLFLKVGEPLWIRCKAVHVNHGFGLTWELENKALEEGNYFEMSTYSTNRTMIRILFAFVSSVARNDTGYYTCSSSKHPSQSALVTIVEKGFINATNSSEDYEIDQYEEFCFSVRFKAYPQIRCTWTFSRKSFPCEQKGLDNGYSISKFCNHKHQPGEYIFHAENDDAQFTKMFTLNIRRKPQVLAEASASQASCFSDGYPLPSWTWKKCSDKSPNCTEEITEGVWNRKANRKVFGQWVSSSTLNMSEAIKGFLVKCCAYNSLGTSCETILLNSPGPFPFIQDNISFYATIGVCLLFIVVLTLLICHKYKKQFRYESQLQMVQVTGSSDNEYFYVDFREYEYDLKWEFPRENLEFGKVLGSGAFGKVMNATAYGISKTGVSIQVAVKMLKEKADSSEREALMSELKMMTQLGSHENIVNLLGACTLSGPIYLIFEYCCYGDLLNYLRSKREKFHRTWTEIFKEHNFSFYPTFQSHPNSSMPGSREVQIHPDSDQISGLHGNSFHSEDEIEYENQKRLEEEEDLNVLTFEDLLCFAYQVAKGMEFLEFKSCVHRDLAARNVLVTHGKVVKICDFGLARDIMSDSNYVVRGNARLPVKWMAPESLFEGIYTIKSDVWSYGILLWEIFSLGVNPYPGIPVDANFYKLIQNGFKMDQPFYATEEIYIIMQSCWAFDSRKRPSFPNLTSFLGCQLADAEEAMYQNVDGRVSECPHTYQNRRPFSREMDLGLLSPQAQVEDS

[38] = target: cAMP-dependent protein kinase catalytic subunit alpha (Homo sapiens, UniProt P17612); assay: Inhibition of protein kinase A (unknown origin) using Kemptide (LRRASLG) as substrate incubated for 15 mins in presence of ATP by spectrophotometric analysis
[39] = target: Rho-associated protein kinase (Homo sapiens, UniProt O75116+Q13464); assay: Inhibition of ROCK (unknown origin) using Myelin Basic Protein as substrate incubated for 60 mins in presence of [33P] gammaATP by microbeta liquid scintillation counter; type: protein assay
[40] = target: T3, Cytochrome P450 3A4; assay: Inhibition of CYP3A4 (unknown origin) at 16 uM; type: ADME
[41] = target: T1, Cytochrome P450 2D6; assay: Inhibition of CYP2D6 (unknown origin) at 8 uM; type: ADME
[42] = target: T2, Cytochrome P450 2C9; assay: Inhibition of CYP2C9 (unknown origin) at 4 uM; type: ADME

SMILES	IC50 [3]	remaining at 0.5 h [5]	clearance [7]	logD [8]	IC50 [9]	pKa [11]	IC50 [13]	remaining at 0.5 h [17]	half-life [18]	Ki [22]	Ki [23]	Ki [26]	also measured
NCC1(c2cccc(-c3ccnc4[nH]nc(C(F)(F)F)c34)c2)COC1	> 10000 nM	77%	62 mL/min/kg	1.7	210 nM	7.6	> 10000 nM	100%	1.2 h	6 nM	392 nM	1020 nM	clearance [1]: 12 mL/min/kg; Drug uptake(free) [2]: 0.4 µM; Ki [4]: 1700 nM; half-life [6]: 5.1 h; clearance [10]: 9 mL/min/kg; bioavailability [12]: 46%; efflux ratio [14]: 2.4; half-life [15]: 6.2 h; Drug uptake(free) [16]: 0.19 µM; bioavailability [19]: 67%; IC50 [20]: 1000 nM; Activity [21]: Active; inhibition [24]: Active; solubility thermodynamic [25]: 515 µM (≈ 179 µg/mL); Papp A→B at 2 h [27]: 19 ×10⁻⁶ cm/s
Cc1cc(-c2ccnc3[nH]nc(C(F)(F)F)c23)cc(C2(CN)COC2)c1	2500 nM	59%	–	2.2	450 nM	7.9	> 10000 nM	86%	–	8 nM	542 nM	286 nM	inhibition (INH) [28]: Active; inhibition (INH) [29]: Active; inhibition (INH) [30]: Active
CC(C)(C#N)c1cccc(-c2ccnc3[nH]ccc23)n1	–	–	42 mL/min/kg	3.4	–	–	–	–	0.3 h	3 nM	12 nM	110 nM	Vd [31]: 0.99 L/kg; CL free [32]: 156 µL/min; Ki [33]: 13 nM; CL free [34]: 24 µL/min; Ki [35]: 210 nM; Ki [36]: 3 nM; Ki [37]: 100 nM; Ki [38]: 110 nM; Ki [39]: 6 nM
Cc1cc(-c2ccnc3[nH]nc(C(F)(F)F)c23)cc(C2(CN)CCC2)c1	650 nM	56%	–	2.9	60 nM	8.8	700 nM	81%	–	3 nM	135 nM	60 nM	inhibition (INH) [40]: Active; inhibition (INH) [41]: Active; inhibition (INH) [42]: Active
